Assay results as given in patent US12331054B2, “Perk inhibiting imidazolopyrazine compounds” (HiberCell, Inc., priority 2019, dated 2025).

What was measured:
[1] = molecular target: Recombinant human EIF2AK3 (PERK) catalytic domain (amino acids 536-1116) (Homo sapiens (Human), UniProt Q9NZJ5); experiment: PERK In Vitro Activity Assay (isolated), TR-FRET kinase assay; details: isolated PERK enzyme, 1.5 μM ATP, read-out: Biochemical IC50
Procedure, shortened: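 Recombinant PERK catalytic domain was incubated with 100–200 nM GFP-eIF2a substrate in 50 mM HEPES pH 7.5, 10 mM MgCl2, 1.0 mM EGTA and 0.01% Brij-35 for 45 min at room temperature. After a 10 mM EDTA stop, 2 nM Tb-anti-phospho-eIF2a was added for 90 min, and IC50 was fitted from TR-FRET ratios by 4-parameter logistic regression.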

[2] = system: eIF2α in HEK293-EGFP-eIF2α cells; experiment: PERK Cellular Assay (HEK293-EGFP-eIF2α cells, tunicamycin-induced ER stress, TR-FRET); type: cell-based; details: tunicamycin 2 hours
Procedure, shortened: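 Cells pre-incubated with inhibitor 30 min at 37 °C, then ER stress induced with […] tunicamycin for 2 h. TR-FRET read on lysates; ratio normalized to DMSO control as percent inhibition over a 10-point, 3-fold dilution series; IC50 from 4-parameter logistic fit.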

Recombinant human EIF2AK3 (PERK) catalytic domain (amino acids 536-1116), sequence (Q9NZJ5 536-1116): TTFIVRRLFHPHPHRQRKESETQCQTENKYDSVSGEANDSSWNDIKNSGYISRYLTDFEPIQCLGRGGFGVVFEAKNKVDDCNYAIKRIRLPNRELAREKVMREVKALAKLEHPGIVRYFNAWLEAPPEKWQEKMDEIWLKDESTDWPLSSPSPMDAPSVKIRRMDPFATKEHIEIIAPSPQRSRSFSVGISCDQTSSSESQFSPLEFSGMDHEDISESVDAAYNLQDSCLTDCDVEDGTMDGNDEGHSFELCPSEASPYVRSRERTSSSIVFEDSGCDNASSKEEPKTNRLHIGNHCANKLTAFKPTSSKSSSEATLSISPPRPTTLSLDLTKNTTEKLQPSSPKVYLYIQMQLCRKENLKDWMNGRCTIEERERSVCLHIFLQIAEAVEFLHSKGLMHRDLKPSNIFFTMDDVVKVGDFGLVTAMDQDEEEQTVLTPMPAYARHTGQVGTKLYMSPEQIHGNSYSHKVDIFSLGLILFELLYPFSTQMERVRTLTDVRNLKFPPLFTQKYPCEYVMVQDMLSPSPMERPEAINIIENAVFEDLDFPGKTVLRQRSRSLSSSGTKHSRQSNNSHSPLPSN

Structure (SMILES) | IC50 [1] [nM] | IC50 [2] [nM] | IC50 ([2]; 2 h) [nM]
[2H]C([2H])([2H])c1nc(-c2ccc(NC(=O)C(O)c3cccc(C(F)(F)F)c3)cc2C)c2c(N)ncc(C)n12 (stereo not drawn) [Example 16, N-[4-[8-amino-5-methyl-3-(trideuteriomethyl)imidazo[1,5-a]pyrazin-1-yl]-3-methyl-phenyl]-2-hydroxy-2-[3-(trifluoromethyl)phenyl]acetamide] | 1000 to 2000 | > 5000 | 
[2H]C([2H])([2H])c1nc(-c2ccc(NC(=O)C(O)c3cccc(C(F)(F)F)c3)nc2C)c2c(N)ncc(C)n12 (stereo not drawn) [Example 175, N-[5-[8-amino-5-methyl-3-(trideuteriomethyl)imidazo[1,5-a]pyrazin-1-yl]-6-methyl-2-pyridyl]-2-hydroxy-2-[3-(trifluoromethyl)phenyl]acetamide] | 1 to 25 | 101 to 250 | 
[2H]C([2H])([2H])c1nc(-c2ccc(NC(=O)C(O)c3cccc(F)c3)nc2C)c2c(N)nc(C)cn12 (stereo not drawn) [Example 171, N-[5-[8-amino-6-methyl-3-(trideuteriomethyl)imidazo[1,5-a]pyrazin-1-yl]-6-methyl-2-pyridyl]-2-(3-fluorophenyl)-2-hydroxy-acetamide] | 1000 to 2000 | > 5000 | 
[2H]C([2H])([2H])c1nc(-c2ccc(NC(=O)C(O)c3cc(F)cc(C(F)(F)F)c3)cc2F)c2c(N)ncc(Cl)n12 (stereo not drawn) [Example 115, N-[4-[8-amino-5-chloro-3-(trideuteriomethyl)imidazo[1,5-a]pyrazin-1-yl]-3-fluoro-phenyl]-2-[3-fluoro-5-(trifluoromethyl)phenyl]-2-hydroxy-acetamide] | 1 to 25 | 26 to 50 | 
[2H]C([2H])([2H])c1nc(-c2ccc(NC(=O)C(O)c3cc(F)cc(F)c3)cc2C)c2c(N)ncc(C(F)(F)F)n12 (stereo not drawn) [Example 47, N-[4-[8-amino-3-(trideuteriomethyl)-5-(trifluoromethyl)imidazo[1,5-a]pyrazin-1-yl]-3-methyl-phenyl]-2-(3,5-difluoro-phenyl)-2-hydroxy-acetamide] | 26 to 50 | 101 to 250 | 
[2H]C([2H])([2H])c1nc(-c2ccc(NC(=O)C(O)c3cccc(Cl)c3)c(F)c2F)c2c(N)ncc(Cl)n12 (stereo not drawn) [Example 144, N-[4-[8-amino-5-chloro-3-(trideuteriomethyl)imidazo[1,5-a]pyrazin-1-yl]-2,3-difluoro-phenyl]-2-(3-chlorophenyl)-2-hydroxy-acetamide] | 1 to 25 | 51 to 100 | 
[2H]C([2H])([2H])c1nc(-c2ccc(NC(=O)C(O)c3cccc(F)c3)cc2C)c2c(N)ncc(C(F)(F)F)n12 (stereo not drawn) [Example 30, N-[4-[8-amino-3-(trideuteriomethyl)-5-(trifluoromethyl)imidazo[1,5-a]pyrazin-1-yl]-3-methyl-phenyl]-2-(3-fluorophenyl)-2-hydroxy-acetamide] | 1 to 25 | 1 to 25 | 
[2H]C([2H])([2H])c1nc(-c2ccc(NC(=O)C(O)c3cccc(F)c3)cc2C)c2c(N)nc(C)cn12 (stereo not drawn) [Example 5, N-(4-(8-amino-6-methyl-3-(trideuteriomethyl)imidazo[1,5-a]pyrazin-1-yl)-3-methylphenyl)-2-(3-fluorophenyl)-2-hydroxyacetamide] | 1 to 25 |  | 1 to 25
[2H]C([2H])([2H])c1nc(-c2ccc(NC(=O)C(O)c3cccc(F)c3)cc2F)c2c(N)ncc(C(F)(F)F)n12 (stereo not drawn) [Example 77, N-[4-[8-amino-3-(trideuteriomethyl)-5-(trifluoromethyl)imidazo[1,5-a]pyrazin-1-yl]-3-fluoro-phenyl]-2-(3-fluorophenyl)-2-hydroxy-acetamide] | 1 to 25 | 51 to 100 | 
[2H]C([2H])([2H])c1nc(-c2ccc(NC(=O)C(O)c3cccc(Cl)c3)cc2C)c2c(N)nc(C)cn12 (stereo not drawn) [Example 34, N-[4-[8-amino-6-methyl-3-(trideuteriomethyl)imidazo[1,5-a]pyrazin-1-yl]-3-methyl-phenyl]-2-(3-chlorophenyl)-2-hydroxy-acetamide] | 1 to 25 | 26 to 50 | 
[2H]C([2H])([2H])c1nc(-c2ccc(NC(=O)C(O)c3cc(F)cc(F)c3)cc2F)c2c(N)ncc(Cl)n12 (stereo not drawn) [Example 108, N-[4-[8-amino-5-chloro-3-(trideuteriomethyl)imidazo[1,5-a]pyrazin-1-yl]-3-fluoro-phenyl]-2-(3,5-difluoro-phenyl)-2-hydroxy-acetamide] | 1 to 25 |  | 1 to 25
[2H]C([2H])([2H])c1nc(-c2ccc(NC(=O)C(O)c3cccc(Cl)c3)c(F)c2F)c2c(N)ncc(C)n12 (stereo not drawn) [Example 138, N-[4-[8-amino-5-methyl-3-(trideuteriomethyl)imidazo[1,5-a]pyrazin-1-yl]-2,3-difluoro-phenyl]-2-(3-chloro-phenyl)-2-hydroxy-acetamide] | 1 to 25 | 1 to 25 | 
Cc1cc(NC(=O)C(O)c2cccc(Cl)c2)ccc1-c1nc(C)n2c(C)cnc(N)c12 (stereo not drawn) [Example 38, N-(4-(8-amino-3,5-dimethylimidazo [1,5-a]pyrazin-1-yl)-3-methyl-phenyl)-2-(3-chlorophenyl)-2-hydroxyacetamide] | 1 to 25 | 1 to 25 | 
Cc1cn2c(C)nc(-c3ccc(NC(=O)C(O)c4cccc(F)c4)cc3C)c2c(N)n1 (single isomer, unassigned) [Example 4, N-(4-(8-amino-3,6-dimethylimidazo[1,5-a]pyrazin-1-yl)-3-methylphenyl)-2-(3-fluorophenyl)-2-hydroxyacetamide] | 51 to 100 | 251 to 500 | 
[2H]C([2H])([2H])c1nc(-c2ccc(NC(=O)C(O)c3cc(F)cc(C(F)(F)F)c3)c(F)c2F)c2c(N)ncc(Cl)n12 (stereo not drawn) [Example 165, N-[4-[8-amino-5-chloro-3-(trideuteriomethyl)imidazo[1,5-a]pyrazin-1-yl]-2,3-difluoro-phenyl]-2-[3-fluoro-5-(trifluoromethyl)phenyl]-2-hydroxy-acetamide] | 26 to 50 | 101 to 250 | 
[2H]C([2H])([2H])c1nc(-c2ccc(NC(=O)C(O)c3cccc(C(F)(F)F)c3)cc2F)c2c(N)ncc(C)n12 (stereo not drawn) [Example 94, N-[4-[8-amino-5-methyl-3-(trideuteriomethyl)imidazo[1,5-a]pyrazin-1-yl]-3-fluoro-phenyl]-2-hydroxy-2-[3-(trifluoromethyl)phenyl]acetamide] | 1 to 25 | 1 to 25 | 
Cc1cc(NC(=O)C(O)c2cccc(F)c2)ccc1-c1nc(C)n2c(Cl)cnc(N)c12 (stereo not drawn) [Example 28, N-(4-(8-amino-5-chloro-3-methylimidazo[1,5-a]pyrazin-1-yl)-3-methylphenyl)-2-(3-fluorophenyl)-2-hydroxyacetamide] | 1 to 25 | 1 to 25 | 
[2H]C([2H])([2H])c1nc(-c2ccc(NC(=O)C(O)c3cccc(C(F)(F)F)c3)cc2F)c2c(N)ncc(C(F)(F)F)n12 (stereo not drawn) [Example 99, N-[4-[8-amino-3-(trideuteriomethyl)-5-(trifluoromethyl)imidazo[1,5-a]pyrazin-1-yl]-3-fluoro-phenyl]-2-hydroxy-2-[3-(trifluoromethyl)phenyl]acetamide] | 26 to 50 | 101 to 250 | 
[2H]C([2H])([2H])c1nc(-c2ccc(NC(=O)C(O)c3cc(F)cc(F)c3)cc2F)c2c(N)ncc(C(F)(F)F)n12 (stereo not drawn) [Example 106, N-[4-[8-amino-3-(trideuteriomethyl)-5-(trifluoromethyl)imidazo[1,5-a]pyrazin-1-yl]-3-fluoro-phenyl]-2-(3,5-difluoro-phenyl)-2-hydroxy-acetamide] | 1 to 25 | 1 to 25 | 
Cc1cn2c(C)nc(-c3ccc(NC(=O)C(O)c4cccc(F)c4)c(F)c3F)c2c(N)n1 (stereo not drawn) [Example 128, N-(4-(8-amino-3,6-dimethyl-imidazo[1,5-a]pyrazin-1-yl)-2,3-difluoro-phenyl)-2-(3-fluorophenyl)-2-hydroxyacetamide] | 1 to 25 | 1 to 25 | 
[2H]C([2H])([2H])c1nc(-c2ccc(NC(=O)C(O)c3cccc(C(F)(F)F)c3)cc2C)c2c(N)ncc(Cl)n12 (stereo not drawn) [Example 18, N-[4-[8-amino-5-chloro-3-(trideuteriomethyl)imidazo[1,5-a]pyrazin-1-yl]-3-methyl-phenyl]-2-hydroxy-2-[3-(trifluoromethyl)phenyl]acetamide] | 1 to 25 | 1 to 25 | 
[2H]C([2H])([2H])c1nc(-c2ccc(NC(=O)C(O)c3cc(F)cc(C(F)(F)F)c3)cc2C)c2c(N)nc(C)cn12 (stereo not drawn) [Example 52, N-[4-[8-amino-6-methyl-3-(trideuteriomethyl)imidazo[1,5-a]pyrazin-1-yl]-3-methyl-phenyl]-2-[3-fluoro-5-(trifluoromethyl)phenyl]-2-hydroxy-acetamide] | 1 to 25 | 26 to 50 | 
[2H]C([2H])([2H])c1nc(-c2ccc(NC(=O)C(O)c3cc(F)cc(C(F)(F)F)c3)cc2C)c2c(N)nc(C)cn12 (stereo not drawn) [Example 53, N-[4-[8-amino-6-methyl-3-(trideuteriomethyl)imidazo[1,5-a]pyrazin-1-yl]-3-methyl-phenyl]-2-[3-fluoro-5-(trifluoromethyl)phenyl]-2-hydroxy-acetamide] | 101 to 250 | 501 to 1000 | 
[2H]C([2H])([2H])c1nc(-c2ccc(NC(=O)C(O)c3cccc(F)c3)cc2F)c2c(N)ncc(C)n12 (stereo not drawn) [Example 72, N-[4-[8-amino-5-methyl-3-(trideuteriomethyl)imidazo[1,5-a]pyrazin-1-yl]-3-fluoro-phenyl]-2-(3-fluorophenyl)-2-hydroxy-acetamide] | 1 to 25 |  | 1 to 25
